Data as given in patent US10569270B2, “Screening kit and method” (CELLPLY S.R.L., priority 2016, dated 2020).
pIC50: −log10 of the molar value. One block for each compound: values may come before it.

Assays:
Jurkat cells = assay: calcium signal (Fluo-4) of Jurkat cells in open microwells after stimulation; format: cell-based, human; settings: Fluo-4 labeled Jurkat cells
Description: Cells from the Jurkat cell line (human Leukemic T cells) were obtained from ATCC and cultured in RPMI 1640 medium supplemented with 10% inactivated FBS medium, 10 mM Hepes, 2 mM Ultraglutamine and 1 mM sodium pyruvate, 1% Penicillin/Streptomycin in 25 cm^2 flasks at 37° C. and 5% CO2.
For the assay in open microwells according to the present invention, Jurkat cells were labeled with Fluo-4 20 μM in HBSS, centrifuged and resuspended in serum-free medium (RPMI 1640 with 25 mM Hepes or HBSS) at a concentration of 1.6×10^6 cells/mL in 1.5 mL Eppendorf tubes used as input reservoirs for the open reversed microwell system. Subsequent to the deposition of Jurkat cells in the microwells (approximately 1-10 cells per microwell) and washing the channels with HBSS, the solutions containing Ionomycin (2 μg/mL) or OKT3 (10 μg/mL) are made to flow into specific microchannels of the open microwell system via peristaltic pump. The images were acquired by a camera connected to the microscope at a distance of 1 minute and processed by software developed in LabView, quantifying the dynamic performance of the same signal on each sample cell.

[1] = tested on: leukemic cell lines (KG-1, Kasumi-1 and HL-60); assay: dose/response analysis of leukemic cell lines to idarubicin in the open reversed microwell system; format: cell-based; settings: leukemic cell line (one of KG-1, Kasumi-1, HL-60), FIG. 9C
SU-DHL-4 cancer cells = assay: open well assay of Rituximab on SU-DHL-4 lymphoma cells (Calcein AM / PI, time-lapse); format: cell-based; settings: Rituximab 10 μg/mL, hS 1%, PI 5 μM; images up to 60 min; versus CTRL; FIG. 11A
Description: Cells: SU-DHL-4 lymphoma cells and Raji cells were used (ATCC CCL-86). 3·10^5 cells/mL were cultured in RPMI medium supplemented with 10% FBS, 1% […]/streptomycin at 37° C., 95% RH, 5% CO2. The cells were amplified, dividing them when in confluence. PBMC were isolated from blood by centrifugation in gradient. Whole blood from healthy donors was collected into tubes treated with anticoagulants according to the directive “ethical principles and guidelines for the protection of humans in research”. Isolated PBMC were washed twice with 10 mL cold HBSS after lysis of red blood cells. The concentration of cells and their viability was determined with Trypan Blue on haemocytometer. The concentration was adjusted to 1 million cells/mL.
Different batches of SU-DHL-4 or Raji cells were harvested at the peak of their growth, washed with PBS and counted in a hemocytometer with Trypan Blue. The cell concentration was adjusted to 1 million cells/mL and they were labeled with Calcein AM (CAM) 5 nM for flow cytometry and 250 nM for the assay according to the present invention. […] Cell viability was finally assessed by PI and flow cytometry. […]
The images were acquired brightfield (BF) to evaluate the morphological characteristics and then in fluorescence to evaluate the signal in DAPI bands (ex: 360/40 nm, 460/50 nm), FITC (ex: 480/30 nm, em: 535/40 nm), TRITC (ex: 540/25 nm, em: 605/55 nm). […]

Compound: C[C@H](CCC(=O)O)C[C@H](C)C[C@H](C)C(=O)/C=C(\O)[C@H](C)C[C@H](C)C/C=C/[C@@H](C)[C@@H](O)[C@@H](C)[C@@H](O)C[C@@H]1CC[C@@](C)([C@H]2CC[C@@](C)([C@@H](C)O)O2)O1 [Ionomycin]
- average increase of the signal with respect to the baseline (Jurkat cells; Ionomycin 2 μg/mL, series of 10 experiments): 193%+/−139%

- pIC50 ([1]; response level: resistant): 6.67
- pIC50 ([1]; response level: sensitive on the average): 7.66
- pIC50 ([1]; response level: sensitive): 8.31
Compound: CC(=O)[C@]1(O)Cc2c(O)c3c(c(O)c2[C@@H](O[C@H]2C[C@H](N)[C@H](O)[C@H](C)O2)C1)C(=O)c1ccccc1C3=O [idarubicin]

Compound: OKT3: monoclonal antibody purified from OKT3 hybridoma culture supernatant
- increase of the signal peak compared to the baseline value (Jurkat cells; OKT3 10 μg/mL, average of a series of 3 experiments): 178%+/−90%

Compound: RTX: monoclonal antibody Rituximab
- dead cells (PI, TRITC channel) in time-lapse images (SU-DHL-4 cancer cells): present only at T2 and T3 in the RTX group
